Source: patent US20020026052A1, “3-cyanoquinolines, 3-cyano-1,6-naphthyridines, and 3-cyano-1,7-naphthyridines as protein kinase inhibitors” (American Home Products Corporation, priority 2000, published 2002)
Values joined by “and” are separate entries in the source; they are usually repeats but may differ in a detail not shown here. Equal values may be shown once.

Experiments:
[1] = target: Rat2 fibroblasts stably transformed with v-Src/Hu c-Src fusion gene (Homo sapiens, UniProt P12931, cells depend on it, form not given); assay: Anchorage Independent Src-transformed Fibroblast Proliferation Assay; type: cell-based, Rat; conditions: suspension growth, MTS reagent on Day 5; read-out: anch-indep src-tx fib IC50
Sequence of Rat2 fibroblasts stably transformed with v-Src/Hu c-Src fusion gene (P12931 whole entry, change not shown, the tested form may be a part): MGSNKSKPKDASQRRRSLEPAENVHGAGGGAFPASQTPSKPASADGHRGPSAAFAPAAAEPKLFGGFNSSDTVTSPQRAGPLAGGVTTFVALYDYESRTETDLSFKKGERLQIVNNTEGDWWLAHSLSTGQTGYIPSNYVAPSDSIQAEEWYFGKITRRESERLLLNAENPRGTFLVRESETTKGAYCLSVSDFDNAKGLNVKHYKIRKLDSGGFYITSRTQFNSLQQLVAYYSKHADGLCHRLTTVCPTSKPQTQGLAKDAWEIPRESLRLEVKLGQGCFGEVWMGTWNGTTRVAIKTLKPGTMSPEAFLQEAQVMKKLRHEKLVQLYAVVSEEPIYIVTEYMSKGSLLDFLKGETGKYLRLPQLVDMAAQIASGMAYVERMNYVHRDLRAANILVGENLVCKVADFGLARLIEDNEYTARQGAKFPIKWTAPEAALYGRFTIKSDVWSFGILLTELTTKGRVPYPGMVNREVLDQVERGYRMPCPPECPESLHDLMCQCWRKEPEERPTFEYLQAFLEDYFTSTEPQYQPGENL
Method: Anchorage Independent Src-transformed Fibroblast Proliferation Assay
Rat2 fibroblasts stably transformed with a plasmid containing a CMV promotor controlled v-Src/Hu c-Src fusion gene in which the catalytic domain of human c-Src was inserted in place of the v-Src catalytic domain in the v-Src gene are used for the measurement of src dependent suspension growth. […] Multiple entries for a given compound indicate that it was tested multiple times.

| SMILES | melting point | GI50 [1] |
| --- | --- | --- |
| COc1cc(Nc2c(C#N)cnc3cc(-c4ccc(CN5CCOCC5)c(CN5CCOCC5)c4)ccc23)c(Cl)cc1C [Example 133, 7-[3 ,4-Bis(4-morpholinylmethyl)phenyl]-4-(2-chloro-5-methoxy-4-methylanilino)-3-quinolinecarbonitrile] | 186 to 188 °C | 730 nM |
| COc1cc(Nc2c(C#N)cnc3cc(C#Cc4ccc(C)cc4)ccc23)c(Cl)cc1Cl [Example 141, 4-(2,4-Dichloro-5-methoxyanilino)-7-[2-(4-methylphenyl)ethynyl]-3-quinolinecarbonitrile] | 223 to 225 °C | > 10000 nM |
| COc1cc(Nc2c(C#N)cnc3cc(/C=C/C(=O)OC(C)(C)C)ccc23)c(Cl)cc1Cl [Example 142, (E)-tert-Butyl 3-[3-cyano-4-(2,4-dichloro-5-methoxyanilino)-7-quinolinyl]-2-propenoate] | 203 to 204 °C | > 10000 nM |
| COc1cc(Nc2c(C#N)cnc3cc(C#CCO)ccc23)c(Cl)cc1Cl [Example 143, 4-(2,4-Dichloro-5-methoxyanilino)-7-(3-hydroxy-1-propynyl)-3-quinolinecarbonitrile] | 245 °C (dec.) | > 10000 nM |
| CCOC(=O)CC1CCN(Cc2ccc(-c3ccc4c(Nc5cc(OC)c(Cl)cc5Cl)c(C#N)cnc4c3)cc2)CC1 [Example 144, Ethyl (1-{4-[3-cyano-4-(2,4-dichloro-5-methoxyanilino)-7-quinolinyl]benzyl}-4-piperidinyl) acetate] | 142 to 144 °C | 92 nM |
| COc1cc(Nc2c(C#N)cnc3cc(-c4ccc(CN5CCS(=O)(=O)CC5)cc4)ccc23)c(Cl)cc1Cl [Example 150, 4-[(2,4-Dichloro-5-methoxyphenyl)amino]-7-{4-[(1,1-dioxido-4-thiomorpholinyl)methyl]phenyl}-3-quinolinecarbonitrile] | 248 to 251 °C | 500 nM and 520 nM |
| COc1cc(Nc2c(C#N)cnc3cc(-c4ccc(CO)n4C)ccc23)c(Cl)cc1Cl [Example 162, 4-(2,4-Dichloro-5-methoxyanilino)-7-[5-(hydroxymethyl)-1-methyl-lH-pyrrol-2-yl]-3-quinolinecarbonitrile] | 175 °C (dec.) | > 10000 nM |
| COc1cc(Nc2c(C#N)cnc3cc(-c4sccc4C=O)ccc23)c(Cl)cc1Cl [Example 163, 4-(2,4-Dichloro-5-methoxyanilino)-7-(3-formyl-2-thienyl)-3-quinolinecarbonitrile] | 231 to 232 °C | > 10000 nM |
| COc1cc(Nc2c(C#N)cnc3cc(-c4cccn4C(=O)OC(C)(C)C)ccc23)c(Cl)cc1Cl [Example 164, tert-butyl 2-[3-cyano-4-(2,4-dichloro-5-methoxyanilino)-7-quinolinyl]pyrrole-1-carboxylate] | 135 °C (dec.) | > 10000 nM |
| COc1cc(Nc2c(C#N)cnc3cc(C#CCN4CCOCC4)c(OC)cc23)c(Cl)cc1Cl [Example 166, 4-(2,4-Dichloro-5-methoxyanilino)-6-methoxy-7-[3-(4-morpholinyl)-1-propynyl]-3-quinolinecarbonitrile] | 105 to 108 °C | 720 nM |
| COc1cc(Nc2c(C#N)cnc3cc(-c4csc(CN5CCOCC5)c4)ccc23)c(C)cc1Cl [Example 167, 4-(4-Chloro-5-methoxy-2-methylanilino)-7-[5-(4-morpholinylmethyl)-3-thienyl]-3-quinolinecarbonitrile] | > 108 °C (dec.) | 900 nM |
| CCN1CCN(c2ccc(-c3ccc4c(Nc5cc(OC)c(Cl)cc5Cl)c(C#N)cnc4c3)nc2)CC1 [Example 179, 4-[(2,4-Dichloro-5-methoxyphenyl)amino]-7-[5-(4-ethyl-1-piperazinyl)-2-pyridinyl]-3-quinolinecarbonitrile] | 232 to 234 °C | 270 nM |
| COc1cc(Nc2c(C#N)cnc3cc(-c4cnc(N5CCOCC5)nc4)ccc23)c(Cl)cc1Cl [Example 186, 4-(2,4-Dichloro-5-methoxyanilino)-7-[2-(4-morpholinyl)-5-pyrimidinyl]-3-quinolinecarbonitrile] | > 260 °C | > 10000 nM |
| COc1cc(Nc2c(C#N)cnc3cc(-c4ccc(Oc5ccc(CN6CCOCC6)cc5)nc4)ccc23)c(Cl)cc1Cl [Example 193, 4-(2,4-Dichloro-5-methoxyanilino)-7-{6-[4-(4-morpholinylmethyl)phenoxy]-3-pyridinyl)-3-quinolinecarbonitrile] | 176 to 178 °C | > 10000 nM |

Other lines, results leading:

| melting point | GI50 [1] | SMILES |
| --- | --- | --- |
| 78 to 80 °C | > 10000 nM | CCOC(=O)C1CCCCN1Cc1ccc(-c2ccc3c(Nc4cc(OC)c(Cl)cc4Cl)c(C#N)cnc3c2)cc1 (centres unmarked) [Example 145, Ethyl 1-{4-[3-cyano-4-(2,4-dichloro-5-methoxyanilino)-7-quinolinyl]benzyl}-2-piperidinecarboxylate] |
| 230 °C (dec.) | 4600 nM | COc1cc(Nc2c(C#N)cnc3cc(-c4ccc(CN5CCCCC5C(=O)O)cc4)ccc23)c(Cl)cc1Cl (centres unmarked) [Example 147, 1-{4-[3-Cyano-4-(2,4-dichloro-5-methoxyanilino)-7-quinolinyl]benzyl}-2-piperidinecarboxylic acid] |
| 67 to 70 °C | 2100 nM | CCOC(=O)C1CCCN(Cc2ccc(-c3ccc4c(Nc5cc(OC)c(Cl)cc5Cl)c(C#N)cnc4c3)cc2)C1 (centres unmarked) [Example 148, Ethyl 1-(4-{3-cyano-4-[(2,4-dichloro-5-methoxyphenyl)amino]-7-quinolinyl}benzyl)-3-piperidinecarboxylate] |
| 235 °C (dec.) | 2500 nM | COc1cc(Nc2c(C#N)cnc3cc(-c4ccc(CN5CCCC(C(=O)O)C5)cc4)ccc23)c(Cl)cc1Cl (centres unmarked) [Example 149, 1-(4-{3-Cyano-4-[(2,4-dichloro-5-methoxyphenyl)amino]-7-quinolinyl}benzyl)-3-piperidinecarboxylic acid] |
| 215 to 217 °C | 4800 nM and 3800 nM | COc1cc(Nc2c(C#N)cnc3cc(C#CCCl)ccc23)c(Cl)cc1Cl [Example 152, 7-(3-Chloro-1-propynyl)-4-[(2,4-dichloro-5-methoxyphenyl)amino]-3-quinolinecarbonitrile] |
| 216 to 219 °C | 2800 nM and 2700 nM | COc1cc(Nc2c(C#N)cnc3cc(-c4ccc(CN5CCSCC5)cc4)ccc23)c(Cl)cc1Cl [Example 153, 4-[(2,4-Dichloro-5-methoxyphenyl)amino]-7-[4-(4-thiomorpholinylmethyl)phenyl]-3-quinolinecarbonitrile] |
| 221 to 222 °C | 5600 nM | COc1cc(Nc2c(C#N)cnc3cc(-c4cccc(N)c4)ccc23)c(Cl)cc1Cl [Example 174, 7-(3-Aminophenyl)-4-[(2,4-dichloro-5-methoxyphenyl)amino]-3-quinolinecarbonitrile] |
| 186 to 188 °C | 90 nM | COC(=O)C1CCN(Cc2ccc(-c3ccc4c(Nc5cc(OC)c(Cl)cc5Cl)c(C#N)cnc4c3)nc2)CC1 [Example 176, 1-{6-[3-Cyano-4-(2,4-dichloro-5-methoxyphenylamino)-quinolin-7-yl]-pyridin-3-ylmethyl}-piperidine-4-carboxylic acid methyl ester] |
